Patent publication US8178535B2, “Substituted sulfonamide compounds having bradykinin 1 receptor activity and use thereof as medicaments” (Gruenenthal GmbH, priority 2008, dated 2012)

Tests used:
[1] = biological target: T1, human B1R receptor (hB1R) (Homo sapiens, UniProt P46663); assay: FLIPR Ca2+ assay (Fluo-4) on CHO K1 cells stably transfected with the human B1R gene; assay type: cell-based; settings: CHO-K1; test substance 10 μM; agonist Lys-Des-Arg9-bradykinin 0.5 nM; % inhibition compared to the maximum achievable inhibition
T1 construct: host or cells: CHO K1 cells
T1 sequence (P46663 1-353): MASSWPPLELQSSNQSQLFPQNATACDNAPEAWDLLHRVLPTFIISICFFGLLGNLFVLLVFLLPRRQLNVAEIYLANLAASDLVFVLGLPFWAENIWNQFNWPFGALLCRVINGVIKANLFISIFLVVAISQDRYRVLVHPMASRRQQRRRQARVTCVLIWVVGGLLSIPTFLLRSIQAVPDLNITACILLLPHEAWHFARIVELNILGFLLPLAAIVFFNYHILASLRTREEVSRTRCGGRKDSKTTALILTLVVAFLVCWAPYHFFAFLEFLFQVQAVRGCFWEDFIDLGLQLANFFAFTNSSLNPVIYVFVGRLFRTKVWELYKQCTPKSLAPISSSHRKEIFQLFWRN
Method: (§1) The agonistic or antagonistic action of compounds can be quantified on the bradykinin 1 receptor (B1R) of humans and rats with ectopically expressing cell lines (CHO K1 cells) and with the aid of a Ca^2+-sensitive dye (Fluo-4) in the fluorescent imaging plate reader (FLIPR). The figure in percent activation refers to the Ca^2+ signal after addition of Lys-Des-Arg^9-bradykinin (0.5 nM) and Des-Arg^9-bradykinin (100 nM). Antagonists result in a suppression of the Ca^2+ inflow after the addition of the agonist. Percent inhibition values are given in comparison to the maximum achievable inhibition. The compounds according to the invention act, for example, on the B1R which is implicated in various disease states. This means that the compounds of the invention are useful as pharmaceutically active substances in medicaments for the treatment and/or inhibition of such disease states.
(§2) The agonistic or antagonistic action of substances can be determined on the bradykinin 1 receptor (B1R) of humans and rats by means of the following assay. According to this assay the Ca^2+ inflow through the channel is quantified by means of a Ca^2+-sensitive dye (Fluo-4 type, Molecular Probes Europe BV, Leiden, Netherlands), in a Fluorescent Imaging Plate Reader (FLIPR, Molecular Devices, Sunnyvale, USA).
(§3) Chinese hamster ovary cells (CHO K1 cells) are used, which are stably transfected with the human B1R gene (hB1R cells, Euroscreen s.a., Gosselies, Belgium), or with the B1R gene of rats (rB1R cells, Axxam, Milan, Italy). For functional investigations these cells are plated out on black 96-well plates with a clear floor (BD Biosciences, Heidelberg, Germany) in a density of 20,000/25,000 cells/well. The cells are incubated overnight with 10 vol. % FBS (foetal bovine serum, Gibco Invitrogen GmbH, Karlsruhe, Germany) at 37° C. and 5% CO2 in a culture medium (hB1R cells: Nutrient Mixture Ham's F12, Gibco Invitrogen GmbH, Karlsruhe, Germany; rB1R cells: D-MEM/F12, Gibco Invitrogen GmbH, Karlsruhe, Germany). The following day the cells are charged for 60 minutes at 37° C. with 2.13 μM Fluo-4 (Molecular Probes Europe BV, Leiden, Netherlands) in HBSS buffer (Hank's buffered saline solution, Gibco Invitrogen GmbH, Karlsruhe, Germany) together with […] (Sigma-Aldrich, Taufkirchen, Germany) and 10 mM HEPES (Sigma-Aldrich, Taufkirchen, Germany).
(§4) The plates are then washed twice with HBSS buffer and HBSS buffer is added which additionally contains 0.1% BSA (bovine serum albumin; Sigma-Aldrich, Taufkirchen, Germany), 5.6 mM glucose and 0.05% gelatin (Merck KGaA, Darmstadt, Germany). After further incubation for 20 minutes at room temperature the plates are used for the Ca^2+ measurement in the FLIPR. The Ca^2+-dependent fluorescence is measured both before and after the addition of substances (λex=488 nm, λem=540 nm). The quantification is carried out by measuring the highest fluorescence intensity (FC, fluorescence counts) over time.
(§5) The FLIPR protocol consists of two substance additions. First, test substances (10 μM) are pipetted onto the cells and the Ca^2+ inflow is compared with the control (hB1R: Lys-Des-Arg9-bradykinin 0.5 nM; rB1R: Des-Arg9-bradykinin 100 nM). This gives the result in percent activation referred to the Ca^2+ signal after addition of Lys-Des-Arg9-bradykinin (0.5 nM), bzw. Des-Arg9-bradykinin (100 nM). After 10 minutes' incubation 0.5 nM Lys-Des-Arg9-bradykinin (hB1R) and 100 nM Des-Arg^9-bradykinin (rB1R) are applied and the inflow of Ca^2+ is likewise determined. Antagonists lead to a suppression of the Ca^2+ inflow. The percent inhibition compared to the maximum achievable inhibition is calculated. The compounds show a good activity on both human and rat receptors.
(§6) The agonistic and antagonistic action of the compounds according to the invention on the bradykinin 1 receptor (B1R) of humans and rats were determined as described above. Antagonists lead to a suppression of the Ca^2+ inflow. […]

[2] = biological target: T2, B1R receptor of rats (rB1R) (Rattus norvegicus, UniProt P97583); assay: FLIPR Ca2+ assay (Fluo-4) on CHO K1 cells stably transfected with the B1R gene of rats; assay type: cell-based; settings: CHO-K1; test substance 10 μM; agonist Des-Arg9-bradykinin 100 nM; % inhibition compared to the maximum achievable inhibition
T2 construct: host or cells: CHO K1 cells
T2 sequence (P97583 1-337): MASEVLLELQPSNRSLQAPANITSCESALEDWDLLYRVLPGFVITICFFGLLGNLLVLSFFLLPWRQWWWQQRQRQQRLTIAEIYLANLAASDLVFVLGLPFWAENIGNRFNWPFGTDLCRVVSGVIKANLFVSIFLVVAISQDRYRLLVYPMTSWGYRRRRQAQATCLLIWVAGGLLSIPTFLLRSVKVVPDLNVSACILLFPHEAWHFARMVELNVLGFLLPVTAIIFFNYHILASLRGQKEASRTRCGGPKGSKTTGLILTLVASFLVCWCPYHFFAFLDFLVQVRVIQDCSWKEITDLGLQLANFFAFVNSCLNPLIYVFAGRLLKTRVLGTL
Method: as §1, §2, §3, §4, §5, §6

Compound | inhibition at 10 µM [1] [%] | inhibition at 10 µM [2] [%]
Cc1cc(S(=O)(=O)N2CCCCC2CCC(=O)N2CCn3c(CN4CCN(C)CC4)ccc3C2)c(C)cc1Cl (centres unmarked) [(5), 3-(1-(4-chloro-2,5-dimethylphenylsulfonyl)piperidin-2-yl)-1-(6-((4-methyl-piperazin-1-yl)methyl)-3,4-dihydropyrrolo[1,2-a]pyrazin-2(1H)-yl)propan-1-one] | 100 | 51
CN1CCN(Cc2ccc3n2CCN(C(=O)CC2CCCCN2S(=O)(=O)c2cccc(C(F)(F)F)c2)C3)CC1 (centres unmarked) [(7), 1-(6-((4-methylpiperazin-1-yl)methyl)-3,4-dihydropyrrolo[1,2-a]pyrazin-2(1H)-yl)-2-(1-(3-(trifluoromethyl)phenylsulfonyl)piperidin-2-yl)ethanone] | 87 | 52
O=C(CC1CCCCN1S(=O)(=O)c1cccc(C(F)(F)F)c1)N1CCn2c(CN3CCCC3)ccc2C1 (centres unmarked) [(8), 1-(6-(pyrrolidin-1-ylmethyl)-3,4-dihydropyrrolo[1,2-a]pyrazin-2(1H)-yl)-2-(1-(3-(trifluoromethyl)phenylsulfonyl)piperidin-2-yl)ethanone] | 99 | 96
O=C(COCC1CCc2ccccc2N1S(=O)(=O)c1ccc(Cl)c(Cl)c1)N1CCn2c(CN3CCCC3)ccc2C1 (centres unmarked) [(10), 2-((1-(3,4-dichlorophenylsulfonyl)-1,2,3,4-tetrahydroquinolin-2-yl)methoxy)-1-(6-(pyrrolidin-1-ylmethyl)-3,4-dihydropyrrolo[1,2-a]pyrazin-2(1H)-yl)ethanone] | 101 | 91
CN1CCN(Cc2ccc3n2CCN(C(=O)COCC2CCc4ccccc4N2S(=O)(=O)c2ccc(Cl)c(Cl)c2)C3)CC1 (centres unmarked) [(11), 2-((1-(3,4-dichlorophenylsulfonyl)-1,2,3,4-tetrahydroquinolin-2-yl)methoxy)-1-(6-((4-methylpiperazin-1-yl)methyl)-3,4-dihydropyrrolo[1,2-a]pyrazin-2(1H)-yl)ethanone] | 100 | 56
Cc1cc(S(=O)(=O)N2CCCCC2CCC(=O)N2CCn3c(CN4CCOCC4)ccc3C2)c(C)cc1Cl (centres unmarked) [(12), 3-(1-(4-chloro-2,5-dimethylphenylsulfonyl)piperidin-2-yl)-1-(6-(morpholino-methyl)-3,4-dihydropyrrolo[1,2-a]pyrazin-2(1H)-yl)propan-1-one] | 103 | 57
CN1CCN(CCCc2ccc3n2CCN(C(=O)CC2CCCCN2S(=O)(=O)c2cccc(C(F)(F)F)c2)C3)CC1 (centres unmarked) [(15), 1-(6-(3-(4-methylpiperazin-1-yl)propyl)-3,4-dihydropyrrolo[1,2-a]pyrazin-2(1H)-yl)-2-(1-(3-(trifluoromethyl)phenylsulfonyl)piperidin-2-yl)ethanone] | 46 | 100

Further lines, results first:

inhibition at 10 µM [1] [%] | inhibition at 10 µM [2] [%] | Compound
56 | 100 | COc1cc(C)c(S(=O)(=O)N2CCCCC2COCC(=O)N2CCn3cnnc3C2)c(C)c1 (centres unmarked) [(1), 1-(5,6-dihydro-[1,2,4]triazolo[4,3-a]pyrazin-7(8H)-yl)-2-((1-(4-methoxy-2,6-dimethylphenylsulfonyl)piperidin-2-yl)methoxy)ethanone]
105 | 106 | COc1cc(C)c(S(=O)(=O)N2CCCCC2COCC(=O)N2CCn3cc(CN4CCCCC4)nc3C2)c(C)c1 (centres unmarked) [(2), 2-((1-(4-methoxy-2,6-dimethylphenylsulfonyl)piperidin-2-yl)methoxy)-1-(2-(piperidin-1-ylmethyl)-5,6-dihydroimidazo[1,2-a]pyrazin-7(8H)-yl)ethanone]
105 | 101 | COc1cc(C)c(S(=O)(=O)N2CCCCC2COCC(=O)N2CCn3c(CN4CCN(C)CC4)ccc3C2)c(C)c1 (centres unmarked) [(4), 2-((1-(4-methoxy-2,6-dimethylphenylsulfonyl)piperidin-2-yl)methoxy)-1-(6-((4-methylpiperazin-1-yl)methyl)-3,4-dihydropyrrolo[1,2-a]pyrazin-2(1H)-yl)ethanone]
100 | 101 | COc1cc(C)c(S(=O)(=O)N2CCCCC2COCC(=O)N2CCn3c(CN4CCOCC4)ccc3C2)c(C)c1 (centres unmarked) [(6), 2-((1-(4-methoxy-2,6-dimethylphenylsulfonyl)piperidin-2-yl)methoxy)-1-(6-(morpholinomethyl)-3,4-dihydropyrrolo[1,2-a]pyrazin-2(1H)-yl)ethanone]
104 | 48 | Cc1cc(S(=O)(=O)N2CCCCC2CCC(=O)N2CCn3c(CN4CCCC4)ccc3C2)c(C)cc1Cl (centres unmarked) [(9), 3-(1-(4-chloro-2,5-dimethylphenylsulfonyl)piperidin-2-yl)-1-(6-(pyrrolidin-1-ylmethyl)-3,4-dihydropyrrolo[1,2-a]pyrazin-2(1H)-yl)propan-1-one]
102 | 102 | COc1cc(C)c(S(=O)(=O)N2CCCCC2COCC(=O)N2CCn3c(CN4CCCC4)ccc3C2)c(C)c1 (centres unmarked) [(13), 2-((1-(4-methoxy-2,6-dimethylphenylsulfonyl)piperidin-2-yl)methoxy)-1-(6-(pyrrolidin-1-ylmethyl)-3,4-dihydropyrrolo[1,2-a]pyrazin-2(1H)-yl)ethanone]
97 | 99 | COc1cc(C)c(S(=O)(=O)N2CCCCC2COCC(=O)N2CCn3c(CCCN4CCN(C)CC4)ccc3C2)c(C)c1 (centres unmarked) [(14), 2-((1-(4-methoxy-2,6-dimethylphenylsulfonyl)piperidin-2-yl)methoxy)-1-(6-(3-(4-methylpiperazin-1-yl)propyl)-3,4-dihydropyrrolo[1,2-a]pyrazin-2(1H)-yl)ethanone]
 | 103 | COc1cc(C)c(S(=O)(=O)N2CCCCC2COCC(=O)N2CCn3c(CN4CCCCC4)nnc3C2)c(C)c1 (centres unmarked) [(87), 2-((1-(4-Methoxy-2,6-dimethylphenylsulfonyl)piperidin-2-yl)methoxy)-1-(3-(piperidin-1-ylmethyl)-5,6-dihydro-[1,2,4]triazolo[4,3-a]pyrazin-7(8H)-yl)ethanone]
